This is an account of results in patent publication US6559177B2, “5, 11-Dioxa-benzo[b]fluoren-10-one and 5-oxa-11-thia-benzo[b]fluoren-10-ones as estrogenic agents” (Wyeth, priority 2001, dated 2003).

For orientation: IC50 means the concentration at which inhibition is half-maximal.

One assay deals with T1, human ERβ (Homo sapiens, UniProt Q92731).
T1 construct: made in house; host or cells: E. coli (crude lysate)
The assay can be described thus: Competition with [3H]-17β-estradiol for binding to ERβ ligand binding domain. As for the experimental part: (§1) This test procedure provides the methodology for one to determine whether a particular compound binds to the estrogen receptor (and is therefore “estrogenic”) and whether there is selectivity for ERα or ERβ. […] The procedure used is briefly described below. A crude lysate of E. coli expressing the estrogen receptor ligand binding domains (D,E, & F) of human ERα or ERβ was prepared. Both receptors and compounds were diluted in 1× Dulbecco's PBS (DPBS) supplemented with 1 mM EDTA. […] After between 5 and 15 hours at room temperature, the plates were washed with DPBS/1 mM EDTA and bound radioactivity determined by liquid scintillation counting.

The target of another assay is T2, human ERα (Homo sapiens, UniProt P03372).
T2 construct: made in house; host or cells: E. coli (crude lysate)
T2 sequence (P03372 311-547 limits assumed): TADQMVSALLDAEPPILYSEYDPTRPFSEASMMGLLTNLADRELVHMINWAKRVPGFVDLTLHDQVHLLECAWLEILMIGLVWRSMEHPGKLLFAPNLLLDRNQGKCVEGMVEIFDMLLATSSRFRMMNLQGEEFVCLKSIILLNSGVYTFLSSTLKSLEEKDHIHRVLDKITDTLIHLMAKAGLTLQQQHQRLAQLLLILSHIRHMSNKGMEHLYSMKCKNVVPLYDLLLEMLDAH
The assay can be described thus: Competition with [3H]-17β-estradiol for binding to ERα ligand binding domain. The settings on record: E. coli lysate expressing ER ligand binding domains (D,E,&F); 2 nM [3H]-17β-estradiol; 5-15 hours at room temperature. As for the experimental part: as §1

Where [1] appears, read: E. coli lysate expressing ER ligand binding domains (D,E,&F); 2 nM [3H]-17β-estradiol; 5-15 hours at room temperature; read-out: ERβ IC50.
[2] abbreviates: read-out: ERβ IC50; E. coli lysate expressing ER ligand binding domains (D,E,&F); 2 nM [3H]-17β-estradiol; 5-15 hours at room temperature.

Read-outs that look alike come from different tables or passages of the source.

T1 sequence (Q92731 264-498 limits assumed): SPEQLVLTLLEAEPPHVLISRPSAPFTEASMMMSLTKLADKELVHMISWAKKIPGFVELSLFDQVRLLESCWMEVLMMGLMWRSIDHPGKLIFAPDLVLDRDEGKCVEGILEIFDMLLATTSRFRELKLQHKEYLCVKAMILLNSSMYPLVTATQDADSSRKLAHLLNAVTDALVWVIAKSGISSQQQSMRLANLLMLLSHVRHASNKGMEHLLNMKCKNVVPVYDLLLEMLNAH

For the molecule `O=c1c2ccc(O)cc2oc2c1oc1c3ccccc3ccc21` [9-Hydroxy-7,13-dioxa-dibenzo[a,h]fluoren-12-one], the IC50 on human ERβ (setting [1]) is 2.71 µM; at human ERα it was over 5 µM.
As to `O=c1c2ccc(O)cc2oc2c1sc1ccccc12` [7-Hydroxy-5-oxa-11-thia-benzo[b]fluoren-10-one], at human ERβ (setting [2]), the IC50 came out at 2.93 µM.
As for `O=c1c2ccc(O)cc2oc2c1oc1cc(O)ccc12` [2,7-Dihydroxy-5,11-dioxa-benzo[b]fluoren-10-one], the figures for the IC50 on human ERβ (setting [1]) and at human ERα were 0.032 µM and 0.55 µM, respectively.
The corresponding values for `O=c1c2sc3ccccc3c2oc2cc(O)cc(O)c12` [7,9-Dihydroxy-5-oxa-11-thia-benzo[b]fluoren-10-one] are 0.76 µM and 3.67 µM.
On to `O=c1c2cc(O)ccc2oc2c1oc1cc(O)ccc12` [2,8-Dihydroxy-5,11-dioxa[b]fluoren-10-one], for which the values for the IC50 at human ERβ (setting [1]) and at human ERα were 0.192 µM and 1.5 µM, respectively.
For the molecule `O=c1c2oc3ccc(O)cc3c2oc2cc(O)cc(O)c12` [3,7,9-Trihydroxy-5,11-dioxa-benzo[b]fluoren-10-one], the results for the concentration for half-maximal inhibition (IC50) on human ERβ (setting [1]) and on human ERα were 0.07 µM and 2.95 µM, respectively.
Consider `O=c1c2oc3ccccc3c2oc2cc(O)cc(O)c12` [7,9-Dihydroxy-5,11-dioxa-benzo[b]fluoren-10-one], for which the IC50 on human ERβ (setting [2]) was found to be 3.19 µM.
`O=c1c2ccc(O)cc2oc2c1oc1ccc(O)cc12` [3,7-Dihydroxy-5,11-dioxa[b]fluoren-10-one]: the IC50 at human ERβ (setting [1]) is 0.85 µM.
Consider `O=c1c2cc(O)ccc2oc2c1oc1ccc(O)cc12` [3,8-Dihydroxy-5,11-dioxa[b]fluoren-10-one], for which the results for the IC50 at human ERβ (setting [1]) and at human ERα were 0.044 µM and 0.188 µM, respectively.
